From US4705805A, “Antithrombotic agent” (priority 1978, dated 1987)
≈ marks a conversion by molar mass, not a printed value. Like-named read-outs stand apart in the source and are kept apart here.

Legend:
[1] = test system: mice (male dd-strain), death by sodium arachidonate; test: prevention of death of mice by sodium arachidonate; type: in vivo; conditions: sodium arachidonate 50 mg/Kg i.v. two hours thereafter
Protocol: When a large amount of arachidonic acid is intravenously administrated to a mouse, blood platelet aggregates are formed and caught by the microvasculature system of the lung. As a result, the mouse expires due to dyspnea.
To examine the effect of a medicine in vivo, the medicine is orally administered to test animals and thereafter arachidonic acid is administered.
In this example, the test was carried out according to the method by Uzunova A. D. et al. [Prostaglandins 13, p. 995 (1977)] Specifically, a CMC suspension consisting of 0.3% CMC solution and a medicine (test compound and reference medicine) was orally administered to mice (male dd-strain, 22-24 g). Two hours thereafter, 50 mg/Kg of sodium arachidonate was intravenously administered to the mice.

[2] = test system: human platelet rich plasma, ADP-induced aggregation; test: inhibition of platelet aggregation in human platelet rich plasma, induced by ADP; type: cell-based; conditions: read-out: percentage inhibition, ADP; for inhibition at 10 µg/mL: 10 μg/ml
Protocol: (§1) In this test, 9 vol. of blood is sampled from the carotid artery of rabbits (2 to 2.5 Kg) and placed in a silicon-coated flask containing 1 vol. of 3.8% sodium citrate. The thus obtained blood is centrifuged at 1,000 rpm for 15 minutes to obtain platelet rich plasma (referred to as "PRP" hereinafter). The aggregation of blood platelets is observed using an aggregometer (made by Bryston Co.) and the degree of aggregation after the addition of aggregation promoting substances is measured by nephelometry, i.e., through increase in light transmission.
(§2) The PRP (0.9 ml) is placed in a silicon-coated cuvett of the aggregometer. Then, 0.05 ml of physiological saline solution containing various concentrations of test reagents or control reagents is added and the mixture is allowed to stand for one minute. Compounds promoting aggregation are then added and the absorbancy of the solution is measured and the percent inhibition of aggregation is calculated according to the following equation: [formula] C: Transmittancy showing the maximum percent aggregation by physiological saline solution
(§3) D: Transmittancy showing the maximum percent aggregation by sample
(§4) In this example, the same procedures are repeated as in Example 10 except that human platelet rich plasma is used in place of rabbit platelet rich plasma.

[3] = test system: rabbit blood platelets (platelet rich plasma), ADP-induced aggregation; test: inhibition of platelet aggregation in rabbit platelet rich plasma (in vitro), induced by ADP; type: cell-based; conditions: Oryctolagus cuniculus, Platelet; for IC50 / inhibition at 1 µg/mL / inhibition at 3 µg/mL / inhibition at 10 µg/mL / inhibition at 30 µg/mL: rabbit PRP, ADP 10^-5 M; for inhibition at 1 µg/mL: 1 μg/ml; for inhibition at 3 µg/mL: 3 μg/ml; for inhibition at 10 µg/mL: 10 μg/ml; for inhibition at 30 µg/mL: 30 μg/ml
Protocol: (§5) In this example, the inhibition of platelet aggregation in rabbit platelet rich plasma (in vitro) is tested.
as §1, §2, §3
(§6) Test for the inhibition of platelet aggregation induced by ADP, collagen and thrombin.

[4] = test system: rabbit blood platelets (platelet rich plasma), collagen-induced aggregation; test: inhibition of platelet aggregation in rabbit platelet rich plasma (in vitro), induced by collagen; type: cell-based; conditions: Oryctolagus cuniculus, Platelet; for inhibition at 1 µg/mL: 1 μg/ml; for inhibition at 3 µg/mL: 3 μg/ml; for inhibition at 10 µg/mL: 10 μg/ml
Protocol: as §5, §1, §2, §3, §6

[5] = test system: human platelet rich plasma, collagen-induced aggregation; test: inhibition of platelet aggregation in human platelet rich plasma, induced by collagen; type: cell-based; conditions: read-out: percentage inhibition, collagen; for inhibition at 10 µg/mL: 10 μg/ml
Protocol: as §1, §2, §3, §4

[6] = test system: mice, death by ADP injection; test: prevention of death of mice by ADP addition (in vivo), oral administration; conditions: for Mortality / Score (mortality): oral, 100 mg/Kg, ADP i.v. after one hour
Protocol: (§7) In this example, prevention of death of mice by ADP addition (in vivo) is tested. It is shown that intravenous administration of a great amount of ADP to mice causes aggregated blood platelets to be captured in the pulmonary capillaries so that the mice die of respiratory distress.
The test is carried out according to Roba's method. [Eur. J. Pharmacol. 37, 265-274 (1976)]. Specifically, CMC solution (0.3%) and CMC suspension containing the test compound and control compounds are orally administered to mice in a ratio of 0.1 ml/10 g (body weight). After one hour, an aqueous solution of ADP (60 mg/ml) is injected into the tail vein in a volume of 0.1 ml/10 g (body weight) every 10 seconds and the mortality is calculated.

mouse (male dd-strain) = test: acute toxicity, Behrens-Karber's method; type: in vivo; conditions: oral
Protocol: (§8) In this example, the acute toxicity of compounds of the invention is determined by Behrens-Karber's method using, 5 male dd-strain for each group weighing 20±1 g. A 0.3% CMC suspension of the test compound (concentration of the test compound: 100 mg/ml) is then orally administered to each mouse.

[7] = acute toxicity, Behrens-Karber's method; type: in vivo; conditions: in vivo; mouse, oral
Protocol: as §8

solubility = type: physicochemical; conditions: for Solubility in ether, benzene, chloroform: chloroform, and the like
[8] = test system: rabbit blood platelets (platelet rich plasma), thrombin-induced aggregation; test: inhibition of platelet aggregation in rabbit platelet rich plasma (in vitro), induced by thrombin; type: cell-based; conditions: Oryctolagus cuniculus, read-out: percentage of inhibition, thrombin; for inhibition at 3 µg/mL: 3 μg/ml; for inhibition at 10 µg/mL: 10 μg/ml
Protocol: as §5
as §1, with “The” for “In this test, 9 vol. of blood is sampled from the carotid artery of rabbits (2 to 2.5 Kg) and placed in a silicon-coated flask containing 1 vol. of 3.8% sodium citrate. The”
as §2, §3, §6

[9] = test system: mice, death by ADP injection; test: prevention of death of mice by ADP addition (in vivo), intravenous administration; conditions: 10 mg/Kg, ADP-Na ten minutes thereafter
Protocol: as §7
In order to check the effect by intravenous administration, physiological saline solution and physiological saline solution containing the test reagents (0.5 mg/ml) is injected into the tail vein in a volume of 0.2 ml/10 g (body weight). Ten minutes thereafter (10 mg/kg) ADP-Na is injected into the tail vein as in the oral test, and the mortality is calculated.

[10] = read-out: percentage of inhibition, ADP
[11] = rabbit PRP, read-out: percentage of inhibition, collagen
[12] = rabbit PRP, 30 μg/ml, read-out: percentage of inhibition, collagen
[13] = read-out: percentage of inhibition, collagen

Structure (SMILES) | Mortality ([1]; oral 50 mg/Kg) | Score (mortality) ([1]; oral 50 mg/Kg) | Mortality ([1]; oral 100 mg/Kg) | Score (mortality) ([1]; oral 100 mg/Kg) | inhibition at 10 µg/mL ([2]; human PRP) | inhibition at 30 µg/mL ([2]; human PRP, 30 μg/ml) | inhibition at 100 µg/mL ([2]; human PRP, 100 μg/ml) | IC50 [3] | inhibition at 1 µg/mL [3, 10] | inhibition at 3 µg/mL [3, 10] | inhibition at 10 µg/mL [3, 10] | inhibition at 30 µg/mL [3, 10] | inhibition at 3 µg/mL [4, 11] | inhibition at 10 µg/mL [4, 11] | inhibition at 10 µg/mL ([5]; human PRP) | inhibition at 30 µg/mL ([5]; human PRP, 30 μg/ml) | inhibition at 100 µg/mL ([5]; human PRP, 100 μg/ml) | Mortality [6] | Score (mortality) [6] | LD50 [7] | further results
O=C(NCCO)c1ccccc1SSc1ccccc1C(=O)NCCO [Compound III, 2,2'-dithiobis(N-2-hydroxyethylbenzamide)] | 70% | 7/10 | 40% | 4/20 | 15% | 43% | 98% | 4.8 µg/mL (≈ 12.2 µM) | 21.3% | 33.4% | 69.1% | 100% | 88.5% | 100% | 20% | 66% | 100% | 20% | 2/10 | ≥ 2000 mg/kg | IC50 ([4]; rabbit PRP): 1.1 µg/mL (≈ 2.8 µM); inhibition at 0.3 µg/mL ([4]; rabbit PRP, 0.3 μg/ml, read-out: percentage of inhibition, collagen): 11%; inhibition at 1 µg/mL [4, 11]: 39.2%; mortality rate (mouse (male dd-strain); 1 g/Kg): 0/5; mortality rate (mouse (male dd-strain); 2 g/Kg): 1/5; mortality rate (mouse (male dd-strain); 3 g/Kg): 4/5; mortality rate (mouse (male dd-strain); 4 g/Kg): 4/5
O=C(NCO)c1ccccc1SSc1ccccc1C(=O)NCO [Compound XV, 2,2'-dithiobis(N-hydroxymethylbenzamide)] |  |  |  |  | 5% | 45% | 90% |  |  |  | 0% | 46% | 22% | 56% | 29% | 68% | 100% |  |  |  | Solubility in DMSO, DMF (solubility; DMSO, DMF, etc.): Soluble; Solubility in ethanol, water (solubility; ethanol, water, and the like): poorly soluble; Solubility in ether, benzene, chloroform (solubility): Insoluble; inhibition at 30 µg/mL [4, 12]: 100%
CC(O)CNC(=O)c1ccccc1SSc1ccccc1C(=O)NCC(C)O (stereo not drawn) [Compound V, 2,2'-dithiobis(N-2-hydroxypropylbenzamide)] | 20% | 4/20 | 20% | 4/20 | 61% | 81% |  | 7.4 µg/mL (≈ 17.6 µM) | 12.5% | 25.5% | 54% | 90% | 83.5% | 100% | 39% | 100% |  |  |  | ≥ 3000 mg/kg | Mortality ([1]; oral 25 mg/Kg): 40%; Score (mortality) ([1]; oral 25 mg/Kg): 8/20; inhibition at 3 µg/mL ([2]; human PRP, 3 μg/ml): 47%; inhibition at 1 µg/mL [4, 11]: 25.7%; inhibition at 1 µg/mL ([8]; rabbit PRP, 1 μg/ml): 10%; inhibition at 3 µg/mL ([8]; rabbit PRP): 57%; inhibition at 10 µg/mL ([8]; rabbit PRP): 89.6%; inhibition at 30 µg/mL ([8]; rabbit PRP, 30 μg/ml): 95%; inhibition at 3 µg/mL ([5]; human PRP, 3 μg/ml): 13%; mortality rate (mouse (male dd-strain); 2 g/Kg): 0/5; mortality rate (mouse (male dd-strain); 3 g/Kg): 2/5; mortality rate (mouse (male dd-strain); 4 g/Kg): 4/5
O=C(c1ccccc1SSc1ccccc1C(=O)N1CCN(Cc2ccccc2)CC1)N1CCN(Cc2ccccc2)CC1 [Compound IV, 2,2'-dithiobis(N'-benzylbenzpiperazide)] |  |  |  |  |  | 0% | 58% | 9.8 µg/mL (≈ 15.7 µM) |  | 28% | 44.7% | 83.3% | 7.6% | 46.5% |  | 12% | 75% | 30% | 3/10 | ≥ 4000 mg/kg | Solubility in ether, benzene, chloroform (solubility): Insoluble; Solubility in methanol, ethanol (solubility; methanol, ethanol, and the like): slightly soluble; Solubility in water (solubility; water, etc.): Readily soluble; IC50 ([4]; rabbit PRP): 9.8 µg/mL (≈ 15.7 µM); inhibition at 30 µg/mL [4, 12]: 100%; inhibition at 3 µg/mL ([8]; rabbit PRP): 31%; inhibition at 10 µg/mL ([8]; rabbit PRP): 58%; inhibition at 30 µg/mL ([8]; rabbit PRP, 30 μg/ml): 84%; Mortality [9]: 50%; Score (mortality) [9]: 5/10
CC(=O)Oc1ccccc1C(=O)O [Aspirin, reference compound] |  |  |  |  |  |  |  |  |  |  |  |  |  |  |  |  |  | 80% | 8/10 |  | Mortality ([1]; oral 12.5 mg/Kg): 50%; Score (mortality) ([1]; oral 12.5 mg/Kg): 5/10; Mortality ([1]; oral 25 mg/Kg): 10%; Score (mortality) ([1]; oral 25 mg/Kg): 1/10; inhibition at 30 µg/mL ([2]; Homo sapiens): 7%; inhibition at 100 µg/mL ([2]; Homo sapiens): 20%; inhibition at 300 µg/mL [3, 10]: 0%; inhibition at 30 µg/mL [4, 13]: 20%; inhibition at 100 µg/mL [4, 13]: 34%; inhibition at 300 µg/mL [4, 13]: 48%; inhibition at 30 µg/mL [8]: 21%; inhibition at 100 µg/mL [8]: 65%; inhibition at 30 µg/mL ([5]; Homo sapiens): 48%; inhibition at 100 µg/mL ([5]; Homo sapiens): 86%; effect in reducing mortality (ADP) ([6]; in words, oral or intravenous administration, Table 3): ineffective; Mortality [9]: 70%; Score (mortality) [9]: 7/10
